Reference: patent US20110207926A1, “NOVEL DIHYDROTRIAZINE DERIVATIVE” (HAMARI CHEMICALS, LTD., priority 2008, published 2011)
In brackets after ≈: the same amount, converted by molar mass. Like-named read-outs stand apart in the source and are kept apart here.

Experiments:
Assay in all cases: Bactericidal activity test (MBC measurement)
P. aeruginosa ATCC 27853 = format: cell-based, Pseudomonas aeruginosa
Description: (§1) Each strain was cultured in Trypticase Soy agar medium for 18 to 20 hr, suspended in 0.1% peptone saline, and prepared to OD 600 nm, 1.0 McFarland. The suspension was further diluted with 0.1% peptone saline to give a test bacteria solution (targeted value; 2×10^7 CFU/mL).
(§2) At 0.5, 1 and 3 min from the start of the reaction, a part of the reaction mixture was sampled and mixed with an equal amount of a neutralizing agent (10% Tween 80, 3% lecithin/aqueous solution) to terminate the bactericidal reaction. The reaction mixture was inoculated to a 96 well microplate dispensed with 180 μL of Tripticase Soy liquid medium in advance, and statically cultured at 37° C. for 20 to 24 hr. Thereafter, the presence or absence of growth was visually evaluated, and the minimum concentration at which growth was not observed was taken as the minimal bactericidal concentration (MBC value) of each action time. The numerical values in the Tables show MBC, the unit is μg/mL, S. aureus means Staphylococcus aureus, MRSA means methicillin-resistant Staphylococcus aureus, E. coli means Escherichia coli, and P. aeruginosa means Pseudomonas aeruginosa.

P. aeruginosa PAO-1 = format: cell-based, Pseudomonas aeruginosa
Description: as §1, §2

S. aureus ATCC 6538 = format: cell-based, Staphylococcus aureus
Description: as §1, §2

MRSA ATCC 33591 = format: cell-based, methicillin-resistant Staphylococcus aureus
Description: as §1, §2

E. coli ATCC 25922 = format: cell-based, Escherichia coli; settings: Escherichia coli, read-out: MBC
Description: as §1, §2

[1] = ATCC25922, 0.5 min, E. coli ATCC 25922, action time 0.5 min
[2] = ATCC25922, 1 min, E. coli ATCC 25922, action time 1 min
[3] = ATCC25922, 0.05 h, E. coli ATCC 25922, action time 3 min
[4] = Pseudomonas aeruginosa, ATCC27853, 0.5 min, P. aeruginosa ATCC 27853, action time 0.5 min, read-out: MBC
[5] = Pseudomonas aeruginosa, ATCC27853, 1 min, P. aeruginosa ATCC 27853, action time 1 min, read-out: MBC
[6] = Pseudomonas aeruginosa, ATCC27853, 0.05 h, P. aeruginosa ATCC 27853, action time 3 min, read-out: MBC
[7] = Pseudomonas aeruginosa, PAO1, 0.5 min, P. aeruginosa PAO-1, action time 0.5 min, read-out: MBC
[8] = Staphylococcus aureus, ATCC6538, 0.5 min, S. aureus ATCC 6538, action time 0.5 min, read-out: MBC
[9] = Staphylococcus aureus, ATCC6538, 1 min, S. aureus ATCC 6538, action time 1 min, read-out: MBC
[10] = Staphylococcus aureus, ATCC6538, 0.05 h, S. aureus ATCC 6538, action time 3 min, read-out: MBC
[11] = Staphylococcus aureus, 0.5 min, MRSA ATCC 33591, action time 0.5 min, read-out: MBC
[12] = Staphylococcus aureus, 1 min, MRSA ATCC 33591, action time 1 min, read-out: MBC
[13] = Staphylococcus aureus, 0.05 h, MRSA ATCC 33591, action time 3 min, read-out: MBC

## 1,6-dihydro-6,6-dimethyl-N^4-decyl-N^2-benzyl-N^2-methyl-1,3,5-triazine-2,4-diamine gluconate [Example 3]
P. aeruginosa ATCC 27853; P. aeruginosa ATCC 27853, action time 0.5 min
  MBC: 25 µg/mL
P. aeruginosa ATCC 27853; P. aeruginosa ATCC 27853, action time 1 min
  MBC: 25 µg/mL
P. aeruginosa ATCC 27853; P. aeruginosa ATCC 27853, action time 3 min
  MBC: 25 µg/mL
P. aeruginosa PAO-1; P. aeruginosa PAO-1, action time 0.5 min
  MBC: 25 µg/mL
P. aeruginosa PAO-1; P. aeruginosa PAO-1, action time 1 min
  MBC: 25 µg/mL
P. aeruginosa PAO-1; P. aeruginosa PAO-1, action time 3 min
  MBC: 25 µg/mL
S. aureus ATCC 6538; S. aureus ATCC 6538, action time 0.5 min
  MBC: 25 µg/mL
S. aureus ATCC 6538; S. aureus ATCC 6538, action time 1 min
  MBC: 25 µg/mL
MRSA ATCC 33591; MRSA ATCC 33591, action time 0.5 min
  MBC: 25 µg/mL
MRSA ATCC 33591; MRSA ATCC 33591, action time 1 min
  MBC: 25 µg/mL
MRSA ATCC 33591; MRSA ATCC 33591, action time 3 min
  MBC: 25 µg/mL

## CC(=O)O.CCCCCCCCN(C)C1=NC(C)(C)NC(NCc2ccc(Cl)c(Cl)c2)=N1 [Example 2, N^4-octyl-N^4-methyl-1,6-dihydro-6,6-dimethyl-N^2— (3,4-dichlorobenzyl)-1,3,5-triazine-2,4-diamine acetate]
E. coli ATCC 25922; [1]
  MBC: 12.5 µg/mL
E. coli ATCC 25922; [2]
  MBC: 6.25 µg/mL
E. coli ATCC 25922; [3]
  MBC: 6.25 µg/mL
P. aeruginosa ATCC 27853; [4]
  MBC: 25 µg/mL
P. aeruginosa ATCC 27853; [5]
  MBC: 25 µg/mL
P. aeruginosa ATCC 27853; [6]
  MBC: 12.5 µg/mL
P. aeruginosa PAO-1; [7]
  MBC: 25 µg/mL
P. aeruginosa PAO-1; Pseudomonas aeruginosa, PAO1, 1 min, P. aeruginosa PAO-1, action time 1 min, read-out: MBC
  MBC: 25 µg/mL
P. aeruginosa PAO-1; Pseudomonas aeruginosa, PAO1, 0.05 h, P. aeruginosa PAO-1, action time 3 min, read-out: MBC
  MBC: 12.5 µg/mL
S. aureus ATCC 6538; [8]
  MBC: 25 µg/mL
S. aureus ATCC 6538; [9]
  MBC: 25 µg/mL
S. aureus ATCC 6538; [10]
  MBC: 12.5 µg/mL
MRSA ATCC 33591; [11]
  MBC: 25 µg/mL
MRSA ATCC 33591; [12]
  MBC: 25 µg/mL
MRSA ATCC 33591; [13]
  MBC: 12.5 µg/mL

## CC(=O)O.CCCCCCCCCNC1=NC(C)(C)NC(N(C)Cc2ccccc2)=N1 [Example 4, 1,6-dihydro-6,6-dimethyl-N^4-nonyl-N^2-benzyl-N^2-methyl-1,3,5-triazine-2,4-diamine acetate]
E. coli ATCC 25922; [1]
  MBC: 12.5 µg/mL
P. aeruginosa ATCC 27853; [4]
  MBC: 25 µg/mL
P. aeruginosa PAO-1; [7]
  MBC: 25 µg/mL
S. aureus ATCC 6538; [8]
  MBC: 100 µg/mL
MRSA ATCC 33591; [11]
  MBC: 25 µg/mL

## CC(=O)O.CCCCCCCCN(C)C1=NC(C)(C)NC(N(C)Cc2ccccc2)=N1 [Example 6, N^4-octyl-N^4-methyl-1,6-dihydro-6,6-dimethyl-N^2-benzyl-N^2-methyl-1,3,5-triazine-2,4-diamine acetate]
E. coli ATCC 25922; [1]
  MBC: 25 µg/mL
P. aeruginosa ATCC 27853; [4]
  MBC: 25 µg/mL
P. aeruginosa PAO-1; [7]
  MBC: 25 µg/mL
S. aureus ATCC 6538; [8]
  MBC: > 200 µg/mL
MRSA ATCC 33591; [11]
  MBC: 200 µg/mL

## CCCCCCCCCCCCNC1=NC(N2CCOCC2)=NCN1 [Example 8, 1,6-dihydro-N-dodecyl-4-(morpholin-4-yl)-1,3,5-triazine-2-amine]
E. coli ATCC 25922; [1]
  MBC: 18.8 µg/mL (≈ 53.5 µM)
E. coli ATCC 25922; [2]
  MBC: 12.5 µg/mL (≈ 35.6 µM)
E. coli ATCC 25922; [3]
  MBC: 9.4 µg/mL (≈ 26.7 µM)
P. aeruginosa ATCC 27853; [4]
  MBC: 12.5 µg/mL (≈ 35.6 µM)
P. aeruginosa ATCC 27853; [5]
  MBC: 12.5 µg/mL (≈ 35.6 µM)
P. aeruginosa ATCC 27853; [6]
  MBC: 9.4 µg/mL (≈ 26.7 µM)
S. aureus ATCC 6538; [8]
  MBC: 37.5 µg/mL (≈ 107 µM)
S. aureus ATCC 6538; [9]
  MBC: 25 µg/mL (≈ 71.1 µM)
S. aureus ATCC 6538; [10]
  MBC: 9.4 µg/mL (≈ 26.7 µM)
MRSA ATCC 33591; [11]
  MBC: 37.5 µg/mL (≈ 107 µM)
MRSA ATCC 33591; [12]
  MBC: 18.8 µg/mL (≈ 53.5 µM)
MRSA ATCC 33591; [13]
  MBC: 6.3 µg/mL (≈ 17.9 µM)

## CC(=O)O.CCCCCCCCCCCCNC1=NC(N2CCN(C)CC2)=NC(C)(C)N1 [Example 10, N-dodecyl-6,6-dimethyl-4-(4-methylpiperazin-1-yl)-1,6-dihydro-1,3,5-triazine-2-amine acetate]
E. coli ATCC 25922; [1]
  MBC: 25 µg/mL
E. coli ATCC 25922; [2]
  MBC: 25 µg/mL
E. coli ATCC 25922; [3]
  MBC: 25 µg/mL
P. aeruginosa ATCC 27853; [4]
  MBC: 25 µg/mL
P. aeruginosa ATCC 27853; [5]
  MBC: 18.8 µg/mL
P. aeruginosa ATCC 27853; [6]
  MBC: 18.8 µg/mL
S. aureus ATCC 6538; [8]
  MBC: 75 µg/mL
S. aureus ATCC 6538; [9]
  MBC: 50 µg/mL
S. aureus ATCC 6538; [10]
  MBC: 12.5 µg/mL
MRSA ATCC 33591; [11]
  MBC: 50 µg/mL
MRSA ATCC 33591; [12]
  MBC: 50 µg/mL
MRSA ATCC 33591; [13]
  MBC: 12.5 µg/mL

## CC(=O)O.CCCCCCCCCCNC1=NC(N2CCCCC2)=NC(C)(C)N1 [Example 11, N-decyl-6,6-dimethyl-4-(piperidin-1-yl)-1,6-dihydro-1,3,5-triazine-2-amine acetate]
E. coli ATCC 25922; [1]
  MBC: 18.8 µg/mL
E. coli ATCC 25922; [2]
  MBC: 18.8 µg/mL
E. coli ATCC 25922; [3]
  MBC: 18.8 µg/mL
P. aeruginosa ATCC 27853; [4]
  MBC: 25 µg/mL
P. aeruginosa ATCC 27853; [5]
  MBC: 25 µg/mL
P. aeruginosa ATCC 27853; [6]
  MBC: 18.8 µg/mL
S. aureus ATCC 6538; [8]
  MBC: 50 µg/mL
S. aureus ATCC 6538; [9]
  MBC: 37.5 µg/mL
S. aureus ATCC 6538; [10]
  MBC: 25 µg/mL
MRSA ATCC 33591; [11]
  MBC: 75 µg/mL
MRSA ATCC 33591; [12]
  MBC: 62.5 µg/mL
MRSA ATCC 33591; [13]
  MBC: 31.3 µg/mL
